Source: paper PMC10204553, “Identification of the Binding Epitope of an Anti-Mouse CCR6 Monoclonal Antibody (C6Mab-13) Using 1× Alanine Scanning” (Antibodies, 2023)

Assays:
C6Mab-13 [1] = test: Surface plasmon resonance (Biacore X100), C6Mab-13 immobilized on CM5 chip; format: binding, rat; conditions: KD could not be calculated
Method: The dissociation constants (KD) between C6Mab-13 and the epitope region peptides were measured using SPR. C6Mab-13 was immobilized on the CM5 sensor chip according to the manufacturer’s protocol (Cytiva, Marlborough, MA, USA). In summary, C6Mab-13 was diluted to 10 μg/mL by an acetate buffer (pH 4.0; Cytiva) and immobilized using an amine-coupling reaction. The surface of flow cell 2 of the CM5 sensor chip was treated with 1-ethyl-3-(3-dimethylaminopropyl)-carbodiimide and N-hydroxysuccinimide (NHS), followed by an injection of C6Mab-13. The unreacted NHS-ester was blocked with ethanolamine after C6Mab-13 immobilization. The KD between C6Mab-13 and mCCR6 peptides (50, 25, 12.5, 6.25, and 3.13 µM) were measured using Biacore X100 (Cytiva) at 25 °C. The buffer was filtrated with PBS containing 0.05% (v/v) Tween 20 and 0.24% (v/v) dimethyl sulfoxide (FUJIFILM Wako Pure Chemical Corporation, Osaka, Japan). The single-cycle kinetics method was used to measure the binding signals. The data were analyzed using 1:1 binding kinetics to determine the association rate constant (ka), dissociation rate constant (kd), and KD using BIAevaluation software (Cytiva).

C6Mab-13 [2] = test: ELISA of C6Mab-13 with immobilized alanine-substituted mCCR6 peptides; format: binding, rat; conditions: for binding of C6Mab-13 in ELISA (in words): ELISA with alanine-substituted peptides, Figure 1A; for C6Mab-13 Reactivity: ELISA, peptide immobilized at 10 µg/mL, 30 min 37 °C, C6Mab-13 10 µg/mL, OD at 655 nm
Method: Synthesized mCCR6 peptides were immobilized on Nunc Maxisorp 96-well immunoplates (Thermo Fisher Scientific Inc., Waltham, MA, USA) at 10 µg/mL for 30 min at 37 °C. After being washed with phosphate-buffered saline (PBS) containing 0.05% Tween20 (PBST; Nacalai Tesque, Inc., Kyoto, Japan), the wells were blocked with 1% bovine serum albumin (BSA)-containing PBST for 30 min at 37 °C. The plates were incubated with 10 µg/mL of C6Mab-13 for 30 min at 37 °C followed by peroxidase-conjugated anti-rat immunoglobulins (1:20,000 diluted; Sigma-Aldrich Corp.) for 30 min at 37 °C. Enzymatic reactions were conducted at room temperature using the ELISA POD Substrate TMB Kit (Nacalai Tesque, Inc.). Optical density was measured at 655 nm using an iMark microplate reader (Bio-Rad Laboratories, Inc., Berkeley, CA, USA).
Figure 1 Determination of the C6Mab-13 epitope by ELISA using alanine-substituted peptides of mCCR6. (A) Synthesized peptides of mCCR6 (10 µg/mL) were immobilized on immunoplates for 30 min at 37 °C. The plates were incubated with 10 µg/mL of C6Mab-13, followed by treatment with peroxidase-conjugated anti-rat immunoglobulins. Optical density was measured at 655 nm (OD655) using a microplate reader. (B) The schematic illustration of mCCR6 and the C6Mab-13 epitope. The C6Mab-13 epitope of mCCR6 comprises Asp11 from ELISA experiments.

Sequence	binding to C6Mab-13 in SPR analysis (in words) (C6Mab-13 [1])	binding of C6Mab-13 in ELISA (in words) (C6Mab-13 [2])	C6Mab-13 Reactivity (C6Mab-13 [2])
MNSTESYFGTADYDNTEYYS [D11A, 1× alanine-substituted mCCR6 1–20 peptide]	lack of binding	did not react	- (OD655 < 0.1)
MNSTESYFATDDYDNTEYYS [G9A, 1× alanine-substituted mCCR6 1–20 peptide]	lack of binding	bound	+++ (OD655 ≧ 0.3)
